IC50 data for 17 molecules are collected here from BindingDB's records for doi:10.1016/s0960-894x(03)00298-1 (Cubist Pharmaceutical, 2003).

Assay [1] has as its target Methionyl-tRNA synthetase (Enterococcus faecalis). Kind of assay: Inhibitory activity against Enterococci faecalis methionyl-tRNA synthetase (EfMetRS).
In assay [2] the target is Methionyl-tRNA synthetase (Staphylococcus aureus). The assay can be described thus: Inhibitory activity against Staphylococcus aureus methionyl-tRNA synthetase (SaMetRS).
Assay [3] shares this target. Described as above. The source holds these as a separate data set.
For assay [4] the target is unchanged. The description is as above. The source holds these as a separate data set.

As for `O=C(O)c1cc(-c2ccc(-c3ccc(Cl)cc3Cl)cc2)n(Cc2ccccc2)n1` [1-Benzyl-5-(2',4'-dichloro-biphenyl-4-yl)-1H-pyrazole-3-carboxylic acid], the IC50 in assay [1] was 29.9 µM; in assay [2], 3.94 µM. In turn, `O=C(O)Cn1nc(C(=O)O)cc1-c1ccc(-c2ccc(Cl)cc2Cl)cc1` [1-Carboxymethyl-5-(2',4'-dichloro-biphenyl-4-yl)-1H-pyrazole-3-carboxylic acid] had an IC50 in assay [2] of 3.42 µM. For the molecule `O=C(O)c1cc(-c2ccc(-c3ccc(Cl)cc3Cl)cc2)n(-c2ccc(Cl)cc2Cl)n1` [5-(2',4'-Dichloro-biphenyl-4-yl)-1-(2,4-dichloro-phenyl)-1H-pyrazole-3-carboxylic acid], the IC50 in assay [1] turned out to be 8.99 µM; in assay [3], 4.88 µM. For the molecule `O=C(O)c1cc(-c2ccc(-c3ccc(Cl)cc3Cl)cc2)n(CCO)n1` [5-(2',4'-Dichloro-biphenyl-4-yl)-1-(2-hydroxy-ethyl)-1H-pyrazole-3-carboxylic acid], the IC50 in assay [1] amounted to 11.4 µM; in assay [4], 4.46 µM. With `COc1ccccc1-n1nc(C(=O)O)cc1-c1ccc(-c2ccc(Cl)cc2Cl)cc1` [5-(2',4'-Dichloro-biphenyl-4-yl)-1-(2-methoxy-phenyl)-1H-pyrazole-3-carboxylic acid], the IC50 in assay [1] was 17.8 µM; in assay [2], 1.51 µM. `COc1ccc(-n2nc(C(=O)O)cc2-c2ccc(-c3ccc(Cl)cc3Cl)cc2)cc1` [5-(2',4'-Dichloro-biphenyl-4-yl)-1-(4-methoxy-phenyl)-1H-pyrazole-3-carboxylic acid] had an IC50 in assay [2] of 10.5 µM.

`CCn1nc(C(=O)O)cc1-c1ccc(-c2ccc(Cl)cc2Cl)cc1` [5-(2',4'-Dichloro-biphenyl-4-yl)-1-ethyl-1H-pyrazole-3-carboxylic acid]: in assay [2], the IC50 amounted to 1.02 µM. With `O=C(O)c1cc(-c2ccc(-c3ccc(Cl)cc3Cl)cc2)n(-c2ccccc2)n1` [5-(2',4'-Dichloro-biphenyl-4-yl)-1-phenyl-1H-pyrazole-3-carboxylic acid], half-maximal inhibition in assay [3] (IC50) required 5.47 µM. In assay [4], `NC(=O)c1cc(-c2ccc(-c3ccc(Cl)cc3Cl)cc2)n(-c2ccccn2)n1` [5-(2',4'-Dichloro-biphenyl-4-yl)-1-pyridin-2-yl-1H-pyrazole-3-carboxylic acid amide] showed an IC50 of 2.95 µM. `O=C(O)c1cc(-c2ccc(-c3ccc(Cl)cc3Cl)cc2)n(-c2ccccn2)n1` [5-(2',4'-Dichloro-biphenyl-4-yl)-1-pyridin-2-yl-1H-pyrazole-3-carboxylic acid]: the IC50 in assay [1] is 1.93 µM; in assay [4], 0.63 µM. For `O=C(NCc1nnn[nH]1)c1cc(-c2ccc(-c3ccc(Cl)cc3Cl)cc2)n(-c2cccnc2)n1` [5-(2',4'-Dichloro-biphenyl-4-yl)-1-pyridin-3-yl-1H-pyrazole-3-carboxylic acid (1H-tetrazol-5-ylmethyl)-amide], in that order: 3.7 µM and 0.13 µM. `O=C(O)c1cc(-c2ccc(-c3ccc(Cl)cc3Cl)cc2)n(-c2cccnc2)n1` [5-(2',4'-Dichloro-biphenyl-4-yl)-1-pyridin-3-yl-1H-pyrazole-3-carboxylic acid] had an IC50 in assay [4] of 0.3 µM. In assay [3], `O=C(O)c1cc(-c2ccc(-c3ccc(Cl)cc3Cl)cc2)n(Cc2cccnc2)n1` [5-(2',4'-Dichloro-biphenyl-4-yl)-1-pyridin-3-ylmethyl-1H-pyrazole-3-carboxylic acid] gave an IC50 of 0.66 µM. Still for that read-out and setting: next, `O=C(O)c1cc(-c2ccc(-c3ccc(Cl)cc3Cl)cc2)n(Cc2ccncc2)n1` [5-(2',4'-Dichloro-biphenyl-4-yl)-1-pyridin-4-ylmethyl-1H-pyrazole-3-carboxylic acid]: 0.5 µM; `O=C(O)c1cc(-c2ccc(-c3ccc(Cl)cc3Cl)cc2)nn1Cc1ccccn1` [5-(2',4'-Dichloro-biphenyl-4-yl)-2-pyridin-2-ylmethyl-2H-pyrazole-3-carboxylic acid]: 2.68 µM; `O=C(O)c1cc(-c2ccc(-c3ccc(F)c(Cl)c3)cc2)n(-c2ccc(Cl)cc2Cl)n1` [5-(3'-Chloro-4'-fluoro-biphenyl-4-yl)-1-(2,4-dichloro-phenyl)-1H-pyrazole-3-carboxylic acid]: 17.2 µM. On the same count and under the same terms, the result for `O=C(O)c1cc(-c2ccc(-c3ccccc3)cc2)n(-c2ccc(Cl)cc2Cl)n1` [5-Biphenyl-4-yl-1-(2,4-dichloro-phenyl)-1H-pyrazole-3-carboxylic acid] reads 40.9 µM.
